Results published in patent publication US8211945B2, “Carba-sugar amine derivative and glycolipid metabolic disorder treating agent containing the same as active ingredient” (Seikagaku Corporation, priority 2001, dated 2012).
Positions count from the first letter of the chain named.

Legend:
Experiment in all cases: Mutant β-galactosidase activity in model cells, 4 days culture
Type in all cases: cell-based
[1] = molecular target: T1, human mutant β-galactosidase R482H (Homo sapiens, UniProt P16278, R482H)
T1 construct: expressed in transfected cells; host or cells: SV40-immortalized skin fibroblasts of a β-galactosidase-deficient knockout mouse
T1 sequence (P16278 29-677 R482H): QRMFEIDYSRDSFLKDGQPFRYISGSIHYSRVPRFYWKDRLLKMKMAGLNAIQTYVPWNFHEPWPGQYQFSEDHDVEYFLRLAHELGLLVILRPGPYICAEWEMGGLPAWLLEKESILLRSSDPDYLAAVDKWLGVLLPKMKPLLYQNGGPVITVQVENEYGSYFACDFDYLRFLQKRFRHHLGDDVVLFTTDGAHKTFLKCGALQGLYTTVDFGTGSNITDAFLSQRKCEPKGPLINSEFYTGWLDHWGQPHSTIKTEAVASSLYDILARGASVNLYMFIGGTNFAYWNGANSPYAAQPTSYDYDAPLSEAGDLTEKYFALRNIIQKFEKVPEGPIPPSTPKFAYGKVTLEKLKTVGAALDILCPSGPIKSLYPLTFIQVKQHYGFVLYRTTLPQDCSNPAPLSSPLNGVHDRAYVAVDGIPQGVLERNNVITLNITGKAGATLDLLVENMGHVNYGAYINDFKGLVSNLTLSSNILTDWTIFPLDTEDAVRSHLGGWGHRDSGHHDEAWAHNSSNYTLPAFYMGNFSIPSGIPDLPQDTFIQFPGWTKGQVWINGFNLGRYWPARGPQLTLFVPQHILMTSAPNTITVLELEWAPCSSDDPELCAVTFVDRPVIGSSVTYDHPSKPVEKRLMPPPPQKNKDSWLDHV
Excerpt: (§1) Cultured skin fibroblasts of a β-galactosidase-deficient knockout mouse was immortalized by introducing an SV40 viral gene, and enzyme genes integrated into pSV2neo and an expression vector were also introduced simultaneously, thereby establishing a model cell (Brain Dev., 23(5), 284-287, 2001). The genes used are human normal (GP8) and mutant β-galactosidase gene Y316C, G123R (infantile GM1-gangliosidosis), R201C (juvenile GM1-gangliosidosis), 151T, T82M, R201H, R263S, R457Q (adult GM1-gangliosidosis), W273L, Y83H, R482H and R482C (Morquio-B disease) (Hum. Genet., 93(2), 109-114, 1994).
(§2) As a control substance, 0.5 mM N-(n-butyl)-deoxygalactonojirimycin (NB-DGJ: The Journal of Biological Chemistry, 269, 27108-27114 (1994)) was used, and the substance 18 of the present invention was used in an amount of 0.2 μM.
(§3) Specifically, after culturing the model cell for 4 days using a cell culture medium (10% FCS DMEM) containing the substance 18 of the present invention, the resulting cells were recovered and diluted such that the amount of protein in the suspension became a predetermined level, and then enzyme activity in the diluted suspension was measured. Using 4-methylumbelliferyl-β-D-galactopyranoside as the fluorescent substrate, the enzyme activity during 30 minutes was measured at 37° C.

[2] = molecular target: T2, human mutant β-galactosidase R482C (Homo sapiens, UniProt P16278, R482C)
T2 construct: expressed in transfected cells; host or cells: SV40-immortalized skin fibroblasts of a β-galactosidase-deficient knockout mouse
T2 sequence (P16278 29-677 R482C): T1 sequence (P16278 29-677 R482H) with H454C
Excerpt: as §1, §2, §3

[3] = molecular target: T3, human mutant β-galactosidase T82M (Homo sapiens, UniProt P16278, T82M)
T3 construct: expressed in transfected cells; host or cells: SV40-immortalized skin fibroblasts of a β-galactosidase-deficient knockout mouse
T3 sequence (P16278 29-677 T82M): T1 sequence (P16278 29-677 R482H) with T54M, H454R
Excerpt: as §1, §2, §3

SMILES: CCCCCCCCN[C@@H]1C=C(CO)[C@H](O)C(O)[C@@H]1O (stereo partly drawn) [Substance 18, N-octyl-5a-carba-α-L-arabino-hexo-5(5a)-enopyranosylamine]
- Relative ratio (×100%) ([1]; R482H, substance 18 vs control): 2.50 ×100%
- enzyme activity ([1]; transferred gene R482H, 0.2 μM, 4 days): 1.24
- Relative ratio (×100%) ([2]; R482C, substance 18 vs control): 4.25 ×100%
- enzyme activity ([2]; transferred gene R482C, 0.2 μM, 4 days): 0.62
- Relative ratio (×100%) ([3]; T82M, substance 18 vs control): 0.88 ×100%
- enzyme activity ([3]; transferred gene T82M, 0.2 μM, 4 days): 0.59

SMILES: CCCCN1C[C@H](O)[C@@H](O)[C@@H](O)[C@H]1CO [Control, N-(n-butyl)-deoxygalactonojirimycin, reference compound]
- enzyme activity, Control ([1]; transferred gene R482H, control substance 0.5 mM NB-DGJ): 0.50
- enzyme activity, Control ([2]; transferred gene R482C, control substance 0.5 mM NB-DGJ): 0.14
- enzyme activity, Control ([3]; transferred gene T82M, control substance 0.5 mM NB-DGJ): 0.67
